Columns and labels:
[1] = in vivo; cited from earlier work
[2] = test system: normal and cancerous breast cells; details: in vitro; cited from earlier work
estrogen receptors = details: in vitro; cited from earlier work
[3] = Effects of UV light on isomerization (Example 4); type: physicochemical; details: room temperature
[4] = test system: human breast tumors grown subcutaneously in mice; details: transdermally delivered; cited from earlier work
[5] = cited from earlier work
[6] = Effects of isopropyl myristate, nature of the alcohol and alcohol/phosphate buffer ratio on isomerization (Example 2); type: physicochemical
Description: The initial E/Z ratio was 63%/37%. • Reference solution: Gel formulation without the gelling agent KLUCEL • Solution II: Reference solution without Isopropyl myristate and containing ethanol • Solution III: Solution II with the ethanol replaced by Isopropyl alcohol • Solution IV: Solution II with the ethanol/buffer ratio of 50/50 instead of 66.5/33.5

[7] = 254 nm, T0, degradation impurity (phenanthrene derivative)

## CCC(=C(c1ccc(O)cc1)c1ccc(OCCN(C)C)cc1)c1ccccc1 [4-hydroxy tamoxifen, 1-[4-(2-N-dimethylaminoethoxy)phenyl]-1-(4-hydroxyphenyl)-2-phenylbut-1-ene]
[1]
  distribution after percutaneous administration: can concentrate in local breast tumors, with very little systemic distribution
[2]
  growth of both normal and cancerous breast cells: inhibits the growth
Estrogen receptors
  potency as measured by binding affinity to estrogen receptors, compared with tamoxifen: more potency than tamoxifen
[3]; 254 nm, 5 min
  % E: 3.0%
  % Z: 91.5%
  % imp 1: 0.0%
  % imp 2: 5.5%
[3]; 254 nm, 10 min
  % E: 3.1%
  % Z: 90.5%
  % imp 1: 0.0%
  % imp 2: 6.3%
[3]; 254 nm, 15 min
  % E: 3.5%
  % Z: 86.5%
  % imp 1: 1.3%
  % imp 2: 8.7%
[3]; 254 nm, 30 min
  % E: 5.7%
  % Z: 74.4%
  % imp 1: 4.3%
  % imp 2: 15.6%
[3]; 254 nm, 45 min
  % E: 6.7%
  % Z: 65.1%
  % imp 1: 7.8%
  % imp 2: 20.4%
[3]; 254 nm, 1 h
  % E: 7.2%
  % Z: 56.6%
  % imp 1: 10.2%
  % imp 2: 26.0%
[3]; 254 nm, 1 h 15
  % E: 7.5%
  % Z: 52.7%
  % imp 1: 11.4%
  % imp 2: 28.4%
[3]; 254 nm, 1 h 30
  % E: 8.2%
  % Z: 43.5%
  % imp 1: 14.0%
  % imp 2: 34.2%
[3]; 254 nm, 1 h 45
  % E: 8.2%
  % Z: 38.2%
  % imp 1: 16.5%
  % imp 2: 37.1%
[3]; 254 nm, 2 h
  % E: 8.3%
  % Z: 32.5%
  % imp 1: 18.2%
  % imp 2: 41.0%
[3]; 254 nm, T0
  % E: 1.7%
  % Z: 98.3%
[3]; [7]
  % imp 1: 0.0%
  % imp 2: 0.0%
[3]; 380 nm, 5 min
  % E: 1.6%
  % Z: 98.4%
[3]; 380 nm, 10 min
  % E: 1.7%
  % Z: 98.3%
[3]; 380 nm, 15 min
  % E: 1.6%
  % Z: 98.4%
[3]; 380 nm, 30 min
  % E: 1.8%
  % Z: 98.2%
[3]; 380 nm, 45 min
  % E: 1.9%
  % Z: 98.1%
[3]; 380 nm, 1 h
  % E: 2.0%
  % Z: 98.0%
[3]; 380 nm, 1 h 15
  % E: 2.8%
  % Z: 97.2%
[3]; 380 nm, 1 h 30
  % E: 2.9%
  % Z: 97.1%
[3]; 380 nm, 1 h 45
  % E: 2.9%
  % Z: 97.1%
[3]; 380 nm, 2 h
  % E: 3.3%
  % Z: 96.7%
[3]; 380 nm, T0
  % E: 1.6%
  % Z: 98.4%
[3]; UV light
  isomerization process at 254 nm compared with 380 nm: faster than at 380 nm
[3]
  time in which the isomerization process can be observed under UV light: 5 min
[4]
  anti-tumor effect: exhibits an anti-tumor effect
[5]; Katzenellenbogen et al., isomers initially 99% pure, after 2 days in tissue culture medium at 37° C.
  extent of isomerization: 20%
[5]; Malet et al.
  time within which spontaneous isomerization of Z- into E-4-hydroxy tamoxifen occurred: 24-48 h
[6]; 0.06% solutions
  effect of replacing ethanol by isopropyl alcohol and eliminating the isopropyl myristate on the reversible kinetics: no significant effect
[6]; 25° C. and 30° C.
  effect of increasing the aqueous vehicle (buffer) concentration from 33.5% to 50% on the rate constant: greatly increases the rate constant
[6]; 40° C.
  effect of increasing the aqueous vehicle (buffer) concentration from 33.5% to 50% on the rate constant: less pronounced
[6]; water concentration in the medium increases
  dependence of the isomerization rate on the dielectric constant of the solvent medium: increased as the dielectric constant of the solvent medium is increased
